# Values quoted from earlier work as cited in patent publication US8175817B2, “Reciprocal symmetry plots as a new representation of countercurrent chromatograms” (The Board of Trustees of the University of Illinois, priority 2007, dated 2012).
# Conditions: octanol/water; extremes of the GUESSmix compounds found in the region of optimal resolution
structure (smiles),measurement,value
CC(C)CCC[C@@H](C)[C@H]1CC[C@H]2[C@@H]3CC=C4C[C@@H](O)CC[C@]4(C)[C@H]3CC[C@]12C [cholesterol],Log Koctanol/water,9.52
